Laboratory results as given in patent US20060030600A1, “Dual NK1/NK3 receptor antagonists for the treatment of schizophrenia” (priority 2004, published 2006).

Key:
[1] = target: T1, Recombinant human NK3 (hNK3) receptor (Homo sapiens, UniProt P29371); experiment: NK3 receptor affinity, [3H]SR142801 binding; conditions: hNK3 receptor membranes, [3H]SR142801 0.3 nM; read-out: pki NK3 (converted)
T1 construct: expressed in transfected cells
T1 sequence (P29371 1-465): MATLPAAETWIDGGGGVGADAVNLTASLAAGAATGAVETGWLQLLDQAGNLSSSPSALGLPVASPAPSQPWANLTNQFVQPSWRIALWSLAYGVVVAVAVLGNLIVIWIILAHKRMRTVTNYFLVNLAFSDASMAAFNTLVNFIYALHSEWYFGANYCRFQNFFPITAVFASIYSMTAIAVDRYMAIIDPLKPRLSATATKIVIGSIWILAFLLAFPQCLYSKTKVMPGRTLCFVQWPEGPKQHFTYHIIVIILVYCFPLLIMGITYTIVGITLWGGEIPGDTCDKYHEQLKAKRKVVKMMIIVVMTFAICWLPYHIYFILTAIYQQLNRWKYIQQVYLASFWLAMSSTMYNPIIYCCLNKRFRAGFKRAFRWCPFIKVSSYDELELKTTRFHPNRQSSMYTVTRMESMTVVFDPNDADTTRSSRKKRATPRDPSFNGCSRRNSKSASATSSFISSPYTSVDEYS
Procedure: Recombinant human NK3 (hNK3) receptor affinity was determined in a 96 well plate assay, using [^3H]SR142801 (final concentration 0.3 nM) to radiolabel the hNK3 receptor in the presence of 10 concentrations of competing compound or buffer. Non specific binding was determined using 10 μM SB222200. Assay buffer consisted of Tris-HCl (50 mM, pH 7.4), BSA (0.1%), MnCl2 (4 mM) and phosphoramidon (1 μM). Membrane preparations of hNK3 receptors (approximately 2.5 μg/well in a 96 well plate) were used to initiate the incubation for 90 min at room temperature. This assay was terminated by rapid filtration under vacuum through GF/C filters, presoaked for 90 min with PEI (0.3%), with 3×0.5 ml washes of ice-cold Tris buffer (50 mM, pH 7.4) containing 0.1% BSA. The radioactivity retained on the filters was measured by scintillation counting. All assays were performed in duplicate in at least two separate experiments.

human NK1 receptor = human NK1 receptor (Homo sapiens, UniProt P25103); experiment: NK1 receptor affinity, [3H]substance P binding; conditions: human NK1 receptors in CHO cells, [3H]substance P 0.6 nM; read-out: pki NK1 (converted)
Chain of human NK1 receptor (P25103 whole entry): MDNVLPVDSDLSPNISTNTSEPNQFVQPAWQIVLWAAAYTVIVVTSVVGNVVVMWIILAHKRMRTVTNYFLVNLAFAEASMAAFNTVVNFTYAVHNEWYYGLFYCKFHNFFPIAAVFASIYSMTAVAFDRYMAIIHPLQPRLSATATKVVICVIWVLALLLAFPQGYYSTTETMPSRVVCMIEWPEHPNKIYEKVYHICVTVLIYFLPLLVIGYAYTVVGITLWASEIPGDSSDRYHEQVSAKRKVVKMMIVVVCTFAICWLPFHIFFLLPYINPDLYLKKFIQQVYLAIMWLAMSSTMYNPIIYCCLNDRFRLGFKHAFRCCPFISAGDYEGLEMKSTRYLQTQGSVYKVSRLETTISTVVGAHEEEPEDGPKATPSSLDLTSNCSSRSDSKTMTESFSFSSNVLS
Procedure: The affinity of test compounds for the NK1 receptor was evaluated at human NK1 receptors in CHO cells infected with the human NK1 receptor (using the Semliki virus expression system) and radiolabelled with [^3H]substance P (final concentration 0.6 nM). Binding assays were performed in HEPES buffer (50 mM, pH 7.4) containing BSA (0.04%) leupeptin (16.8 μg/ml), MnCl2 (3mM) and phosphoramidon (2 μM). Binding assays consisted of 250 μl of membrane suspension (approximately 1.5 μg/well in a 96 well plate), […] of buffer of displacing agent and 125 μl of [^3H]substance P. Displacement curves were determined with at least seven concentrations of the compound. The assay tubes were incubated for 60 min at room temperature after which time the tube contents were rapidly filtered under vacuum through GF/C filters presoaked for 60 min with PEI (0.3%) with 3×1 ml washes of HEPES buffer (50 mM, pH 7.4). The radioactivity retained on the filters was measured by scintillation counting. All assays were performed in duplicate in at least 2 separate experiments.

[2] = phase II trial, cited from earlier work

With Cc1cc(F)ccc1-c1cc(C2CCCN(S(C)(=O)=O)C2)ncc1N(C)C(=O)C(C)(C)c1cc(C(F)(F)F)cc(C(F)(F)F)c1 (racemic) [Example 12, (RS)-2-(3,5-Bis-trifluoromethyl-phenyl)-N-[4-(4-fluoro-2-methyl-phenyl)-1′-methanesulfonyl-1′,2′,3′,4′,5′,6′-hexahydro-[2,3′]bipyridinyl-5-yl]-N-methyl-isobutyramide] the Ki [1] was 21.4 nM and the Ki (human NK1 receptor) was 0.589 nM.

For CC(=O)N1CCCC(c2cc(-c3ccc(F)cc3C)c(N(C)C(=O)C(C)(C)c3cc(C(F)(F)F)cc(C(F)(F)F)c3)cn2)C1 (racemic) [Example 13, (RS)-N-[1′-Acetyl-4-(4-fluoro-2-methyl-phenyl)-1′,2′,3′,4′,5′,6′-hexahydro-[2,3′]bipyridinyl-5-yl]-2-(3,5-bis-trifluoromethyl-phenyl)-N-methyl-isobutyramide], the Ki [1] was 14.5 nM and the Ki (human NK1 receptor) was 1.62 nM.

Work on CN(C(=O)C(C)(C)c1cc(C(F)(F)F)cc(C(F)(F)F)c1)c1cnc(OCCO)cc1-c1ccccc1Cl [Example 1, 2-(3,5-Bis-trifluoromethyl-phenyl)-N-[4-(2-chloro-phenyl)-6-(2-hydroxy-ethoxy)-pyridin-3-yl]-N-methyl-isobutyramide] yielded a Ki [1] of 19.5 nM and a Ki (human NK1 receptor) of 0.562 nM.

With CN(C(=O)C(C)(C)c1cc(C(F)(F)F)cc(C(F)(F)F)c1)c1cnc(OC(CO)CO)cc1-c1ccccc1Cl [Example 2, 2-(3,5-Bis-trifluoromethyl-phenyl)-N-[4-(2-chloro-phenyl)-6-(2-hydroxy-1-hydroxymethyl-ethoxy)-pyridin-3-yl]-N-methyl-isobutyramide] the Ki [1] was 9.12 nM and the Ki (human NK1 receptor) was 1.23 nM.

For Cc1cc(F)ccc1-c1cc(OC[C@@H]2CCCN2)ncc1N(C)C(=O)C(C)(C)c1cc(C(F)(F)F)cc(C(F)(F)F)c1 [Example 3, (S)-2-(3,5-Bis-trifluoromethyl-phenyl)-N-[4-(4-fluoro-2-methyl-phenyl)-6-(pyrrolidin-2-ylmethoxy)-pyridin-3-yl]-N-methyl-isobutyramide], the Ki [1] was 23.4 nM and the Ki (human NK1 receptor) was 0.851 nM.

Cc1cc(F)ccc1-c1cc(SCCO)ncc1N(C)C(=O)C(C)(C)c1cc(C(F)(F)F)cc(C(F)(F)F)c1 [Example 4, 2-(3,5-Bis-trifluoromethyl-phenyl)-N-[4-(4-fluoro-2-methyl-phenyl)-6-(2-hydroxy-ethylsulfanyl)-pyridin-3-yl]-N-methyl-isobutyramide] showed a Ki [1] of 8.51 nM and a Ki (human NK1 receptor) of 2.34 nM.

For Cc1cc(F)ccc1-c1cc(-c2cccnc2)ncc1N(C)C(=O)C(C)(C)c1cc(C(F)(F)F)cc(C(F)(F)F)c1 [Example 5, 2-(3,5-Bis-trifluoromethyl-phenyl)-N-[4-(4-fluoro-2-methyl-phenyl)-[2,3′]bipyridinyl-5-yl]-N-methyl-isobutyramide], the Ki [1] was 16.2 nM and the Ki (human NK1 receptor) was 1.29 nM.

In the case of Cc1cc(F)ccc1-c1cc(-c2ccc[n+]([O-])c2)ncc1N(C)C(=O)C(C)(C)c1cc(C(F)(F)F)cc(C(F)(F)F)c1 [Example 6, 2-(3,5-Bis-trifluoromethyl-phenyl)-N-[4-(4-fluoro-2-methyl-phenyl)-1′-oxy-[2,3′]bipyridinyl-5-yl]-N-methyl-isobutyramide], the Ki [1] is reported as 24.5 nM and the Ki (human NK1 receptor) is reported as 0.977 nM.

In the case of Cc1cc(F)ccc1-c1cc(-c2cccc(CO)c2)ncc1N(C)C(=O)C(C)(C)c1cc(C(F)(F)F)cc(C(F)(F)F)c1 [Example 7, 2-(3,5-Bis-trifluoromethyl-phenyl)-N-[4-(4-fluoro-2-methyl-phenyl)-6-(3-hydroxymethyl-phenyl)-pyridin-3-yl]-N-methyl-isobutyramide], the Ki [1] is reported as 6.92 nM and the Ki (human NK1 receptor) is reported as 1.2 nM.

Work on Cc1cc(F)ccc1-c1cc(-c2cncc(CO)c2)ncc1N(C)C(=O)C(C)(C)c1cc(C(F)(F)F)cc(C(F)(F)F)c1 [Example 8, 2-(3,5-Bis-trifluoromethyl-phenyl)-N-[4-(4-fluoro-2-methyl-phenyl)-5′-hydroxymethyl-[2,3′]bipyridinyl-5-yl]-N-methyl-isobutyramide] yielded a Ki [1] of 6.17 nM and a Ki (human NK1 receptor) of 1.82 nM.

Cc1cc(F)ccc1-c1cc(-c2ccnc(CO)c2)ncc1N(C)C(=O)C(C)(C)c1cc(C(F)(F)F)cc(C(F)(F)F)c1 [Example 9, 2-(3,5-Bis-trifluoromethyl-phenyl)-N-[4-(4-fluoro-2-methyl-phenyl)-2′-hydroxymethyl-[2,4′]bipyridinyl-5-yl]-N-methyl-isobutyramide] gave a Ki [1] of 11.5 nM and a Ki (human NK1 receptor) of 1.55 nM.

Cc1cc(F)ccc1-c1cc(C2=CCN(S(C)(=O)=O)CC2)ncc1N(C)C(=O)C(C)(C)c1cc(C(F)(F)F)cc(C(F)(F)F)c1 [Example 10, 2-(3,5-Bis-trifluoromethyl-phenyl)-N-[4-(4-fluoro-2-methyl-phenyl)-1′-methanesulfonyl-1′,2′,3′,6′-tetrahydro-[2,4′]bipyridinyl-5-yl]-N-methyl-isobutyramide] showed a Ki [1] of 2.63 nM and a Ki (human NK1 receptor) of 0.617 nM.

For Cc1cc(F)ccc1-c1cc(C2CCN(S(C)(=O)=O)CC2)ncc1N(C)C(=O)C(C)(C)c1cc(C(F)(F)F)cc(C(F)(F)F)c1 [Example 11, 2-(3,5-Bis-trifluoromethyl-phenyl)-N-[4-(4-fluoro-2-methyl-phenyl)-1′-methanesulfonyl-1′,2′,3′,4′,5′,6′-hexahydro-[2,4′]bipyridinyl-5-yl]-N-methyl-isobutyramide], the Ki [1] was 6.46 nM and the Ki (human NK1 receptor) was 1.1 nM.

Work on Cc1cc(F)ccc1-c1cc(C2=CCSCC2)ncc1N(C)C(=O)C(C)(C)c1cc(C(F)(F)F)cc(C(F)(F)F)c1 [Example 14, 2-(3,5-Bis-trifluoromethyl-phenyl)-N-[6-(3,6-dihydro-2H-thiopyran-4-yl)-4-(4-fluoro-2-methyl-phenyl)-pyridin-3-yl]-N-methyl-isobutyramide] yielded a Ki [1] of 14.1 nM and a Ki (human NK1 receptor) of 1.15 nM.

Cc1cc(F)ccc1-c1cc(C2=CCS(=O)(=O)CC2)ncc1N(C)C(=O)C(C)(C)c1cc(C(F)(F)F)cc(C(F)(F)F)c1 [Example 15, 2-(3,5-Bis-trifluoromethyl-phenyl)-N-[6-(1,1-dioxo-1,2,3,6-tetrahydro-1λ^6-thiopyran-4-yl)-4-(4-fluoro-2-methyl-phenyl)-pyridin-3-yl]-N-methyl-isobutyramide] showed a Ki [1] of 6.76 nM and a Ki (human NK1 receptor) of 0.589 nM.

For Cc1cc(F)ccc1-c1cc(C2CCS(=O)(=O)CC2)ncc1N(C)C(=O)C(C)(C)c1cc(C(F)(F)F)cc(C(F)(F)F)c1 [Example 16, 2-(3,5-Bis-trifluoromethyl-phenyl)-N-[6-(1,1-dioxo-hexahydro-1λ^6-thiopyran-4-yl)-4-(4-fluoro-2-methyl-phenyl)-pyridin-3-yl]-N-methyl-isobutyramide], the Ki [1] was 16.6 nM and the Ki (human NK1 receptor) was 1.38 nM.

For CC(=O)N(C)C1(c2ccccc2)CCN(CCC[C@]2(c3ccc(Cl)c(Cl)c3)CCCN(C(=O)c3ccccc3)C2)CC1 [SR 142,801, Osanetant], the “activity on positive symptoms of schizophrenia” value ([2]; altered behaviour, delusion, hallucinations, extreme emotions, excited motor activity, incoherent speech) is given as “active on positive symptoms of schizophrenia” and the “activity on negative symptoms of schizophrenia” value ([2]; depression, anhedonia, social isolation or memory and attention deficits) is given as “inactive in the treatment of negative symptoms”.
